Tested on: yeast genes (level of expressed mRNA)
Assay: DNA chip analysis of expressed mRNA of yeast genes after 2 h culture with a toxic chemical substance
Type: cell-based, Saccharomyces cerevisiae S288C
Procedure, shortened: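 S. cerevisiae S288C grown at 25° C in YPD; toxicant added at log phase at growth-inhibitory, non-lethal levels for 2 h, untreated cells as control. Poly(A) mRNA reverse-transcribed with Cy3/Cy5-dUTP, hybridized to whole-genome chip at 65° C >12 h; value is fluorescence ratio versus untreated.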

Substance: Na2As [(1)]
- The level of expressed mRNA in the presence of chemical substance/ (yeast gene YKL086W, ratio to control without chemical): 1.0
- The level of expressed mRNA in the presence of chemical substance/The level of expressed mRNA in the absence of chemical substance (yeast gene YKL096W): 1.4
- The level of expressed mRNA in the presence of chemical substance/The level of expressed mRNA in the absence of chemical substance (yeast gene YKL139W): 0.9
- The level of expressed mRNA in the presence of chemical substance/ (yeast gene YKL151C, ratio to control without chemical substance, 2 h culture): 1.2
- The level of expressed mRNA in the presence of chemical substance/ (yeast gene YKL153W, ratio to control without chemical substance, 2 h culture): 1.1
- The level of expressed mRNA in the presence of chemical substance/The level of expressed mRNA in the absence of chemical substance (yeast gene YKL165C): 0.5
- The level of expressed mRNA in the presence of chemical substance/The level of expressed mRNA in the absence of chemical substance (yeast gene YKL193C): 1.3
- The level of expressed mRNA in the presence of chemical substance/ (yeast gene YKL195W, ratio to control without chemical substance, 2 h culture): 0.8
- The level of expressed mRNA in the presence of chemical substance/in the absence of chemical substance (yeast gene YKR009C): 1.0
- The level of expressed mRNA in the presence of chemical substance/The level of expressed mRNA in the absence of chemical substance (yeast gene YKR014C): 1.1
- The level of expressed mRNA in the presence of chemical substance/ (yeast gene YKR091W, ratio to control without chemical): 1.5
- The level of expressed mRNA in the presence of chemical substance/ (yeast gene YLR054C, ratio to control without chemical substance, 2 h culture): 2.0
- The level of expressed mRNA in the presence of chemical substance/The level of expressed mRNA in the absence of chemical substance (yeast gene YLR120C): 1.2
- The level of expressed mRNA in the presence of chemical substance/The level of expressed mRNA in the absence of chemical substance (yeast gene YLR136C): 1.3
- The level of expressed mRNA in the presence of chemical substance/ (yeast gene YLR149C, ratio to control without chemical substance, 2 h culture): 1.4
- The level of expressed mRNA in the presence of chemical substance/ (yeast gene YLR152C, ratio to control without chemical substance, 2 h culture): 0.7
- The level of expressed mRNA in the presence of chemical substance/The level of expressed mRNA in the absence of chemical substance (yeast gene YLR178C): 1.7
- The level of expressed mRNA in the presence of chemical substance/ (yeast gene YLR194C, ratio to control without chemical): 2.1
- The level of expressed mRNA in the presence of chemical substance/The level of expressed mRNA in the absence of chemical substance (yeast gene YLR250W): 1.5
- The level of expressed mRNA in the presence of chemical substance/ (yeast gene YLR324W, ratio to control without chemical substance, 2 h culture): 0.7
- The level of expressed mRNA in the presence of chemical substance/The level of expressed mRNA in the absence of chemical substance (yeast gene YLR327C): 5.5
- The level of expressed mRNA in the presence of chemical substance/ (yeast gene YLR350W, ratio to control without chemical substance, 2 h culture): 1.2
- The level of expressed mRNA in the presence of chemical substance/in the absence of chemical substance (yeast gene YLR351C): 1.0
- The level of expressed mRNA in the presence of chemical substance/The level of expressed mRNA in the absence of chemical substance (yeast gene YLR356W): 1.0
- The level of expressed mRNA in the presence of chemical substance/The level of expressed mRNA in the absence of chemical substance (yeast gene YLR362W): 1.1
- The level of expressed mRNA in the presence of chemical substance/in the absence of chemical substance (yeast gene YLR375W): 0.9
- The level of expressed mRNA in the presence of chemical substance/ (yeast gene YLR387C, ratio to control without chemical substance, 2 h culture): 0.9
- The level of expressed mRNA in the presence of chemical substance/The level of expressed mRNA in the absence of chemical substance (yeast gene YLR429W): 0.7
- The level of expressed mRNA in the presence of chemical substance/ (yeast gene YLR460C, ratio to control without chemical substance, 2 h culture): 2.1
- The level of expressed mRNA in the presence of chemical substance/ (yeast gene YML117W, ratio to control without chemical substance, 2 h culture): 0.9
- The level of expressed mRNA in the presence of chemical substance/The level of expressed mRNA in the absence of chemical substance (yeast gene YMR004W): 0.9
- The level of expressed mRNA in the presence of chemical substance/ (yeast gene YMR009W, ratio to control without chemical substance, 2 h culture): 2.3
- The level of expressed mRNA in the presence of chemical substance/ (yeast gene YMR067C, ratio to control without chemical substance, 2 h culture): 0.9
- The level of expressed mRNA in the presence of chemical substance/ (yeast gene YMR090W, ratio to control without chemical substance, 2 h culture): 6.9
- The level of expressed mRNA in the presence of chemical substance/The level of expressed mRNA in the absence of chemical substance (yeast gene YMR094W): 1.0
- The level of expressed mRNA in the presence of chemical substance/ (yeast gene YMR095C, ratio to control without chemical): 1.1
- The level of expressed mRNA in the presence of chemical substance/ (yeast gene YMR097C, ratio to control without chemical substance, 2 h culture): 1.5
- The level of expressed mRNA in the presence of chemical substance/ (yeast gene YMR102C, ratio to control without chemical substance, 2 h culture): 1.0
- The level of expressed mRNA in the presence of chemical substance/The level of expressed mRNA in the absence of chemical substance (yeast gene YMR104C): 1.9
- The level of expressed mRNA in the presence of chemical substance/ (yeast gene YMR107W, ratio to control without chemical substance, 2 h culture): 5.0
- The level of expressed mRNA in the presence of chemical substance/ (yeast gene YMR180C, ratio to control without chemical substance, 2 h culture): 1.2
- The level of expressed mRNA in the presence of chemical substance/ (yeast gene YMR184W, ratio to control without chemical substance, 2 h culture): 1.3
- The level of expressed mRNA in the presence of chemical substance/ (yeast gene YMR191W, ratio to control without chemical substance, 2 h culture): 1.3
- The level of expressed mRNA in the presence of chemical substance/The level of expressed mRNA in the absence of chemical substance (yeast gene YMR219W): 0.7
- The level of expressed mRNA in the presence of chemical substance/The level of expressed mRNA in the absence of chemical substance (yeast gene YMR226C): 1.1
- The level of expressed mRNA in the presence of chemical substance/in the absence of chemical substance (yeast gene YMR267W): 0.8
- The level of expressed mRNA in the presence of chemical substance/The level of expressed mRNA in the absence of chemical substance (yeast gene YMR275C): 0.7
- The level of expressed mRNA in the presence of chemical substance/The level of expressed mRNA in the absence of chemical substance (yeast gene YMR276W): 0.6
- The level of expressed mRNA in the presence of chemical substance/in the absence of chemical substance (yeast gene YMR278W): 0.7
- The level of expressed mRNA in the presence of chemical substance/in the absence of chemical substance (yeast gene YMR293C): 0.9
- The level of expressed mRNA in the presence of chemical substance/ (yeast gene YMR295C, ratio to control without chemical substance, 2 h culture): 1.7
- The level of expressed mRNA in the presence of chemical substance/ (yeast gene YMR316W, ratio to control without chemical substance, 2 h culture): 3.2
- The level of expressed mRNA in the presence of chemical substance/The level of expressed mRNA in the absence of chemical substance (yeast gene YNL006W): 1.1
- The level of expressed mRNA in the presence of chemical substance/The level of expressed mRNA in the absence of chemical substance (yeast gene YNL007C): 0.7
- The level of expressed mRNA in the presence of chemical substance/ (yeast gene YNL044W, ratio to control without chemical substance, 2 h culture): 1.3

From patent US20050112573A1, “Method of detecting toxic substance” (priority 2001, published 2005)
